Reference: ChEMBL document CHEMBL5465560, “Selectivity Literature for EUbOPEN Chemogenomic Library” (2024)
Blank lines part the entries; values can stand above or below the molecule they belong to.

Columns and labels:
[1] = target: Casein kinase II subunit alpha' (Homo sapiens) (UniProt P19784); test: Selectivity interaction (Kinase panel (literature)) EUB0001199aCl CSNK2A2; details: at 1 µM
[2] = target: Ephrin type-A receptor 7 (Homo sapiens) (UniProt Q15375); test: Selectivity interaction (KinomeScan (DiscoverX)) EUB0000655a EPHA7; details: at 10 µM
[3] = target: Cyclin-dependent kinase 18 (Homo sapiens) (UniProt Q07002); test: Selectivity interaction (KinomeScan (DiscoverX)) EUB0001079a CDK18; details: at 1 µM
[4] = target: Cyclin-dependent kinase 3 (Homo sapiens) (UniProt Q00526); test: Selectivity interaction (KinomeScan (DiscoverX)) EUB0000618a CDK3; details: at 10 µM
[5] = target: T1, Serine/threonine-protein kinase 36 (Homo sapiens) (UniProt Q9NRP7); test: Selectivity interaction (KinomeScan (DiscoverX)) EUB0001619a STK36; details: at 1 µM
T1 sequence (whole entry): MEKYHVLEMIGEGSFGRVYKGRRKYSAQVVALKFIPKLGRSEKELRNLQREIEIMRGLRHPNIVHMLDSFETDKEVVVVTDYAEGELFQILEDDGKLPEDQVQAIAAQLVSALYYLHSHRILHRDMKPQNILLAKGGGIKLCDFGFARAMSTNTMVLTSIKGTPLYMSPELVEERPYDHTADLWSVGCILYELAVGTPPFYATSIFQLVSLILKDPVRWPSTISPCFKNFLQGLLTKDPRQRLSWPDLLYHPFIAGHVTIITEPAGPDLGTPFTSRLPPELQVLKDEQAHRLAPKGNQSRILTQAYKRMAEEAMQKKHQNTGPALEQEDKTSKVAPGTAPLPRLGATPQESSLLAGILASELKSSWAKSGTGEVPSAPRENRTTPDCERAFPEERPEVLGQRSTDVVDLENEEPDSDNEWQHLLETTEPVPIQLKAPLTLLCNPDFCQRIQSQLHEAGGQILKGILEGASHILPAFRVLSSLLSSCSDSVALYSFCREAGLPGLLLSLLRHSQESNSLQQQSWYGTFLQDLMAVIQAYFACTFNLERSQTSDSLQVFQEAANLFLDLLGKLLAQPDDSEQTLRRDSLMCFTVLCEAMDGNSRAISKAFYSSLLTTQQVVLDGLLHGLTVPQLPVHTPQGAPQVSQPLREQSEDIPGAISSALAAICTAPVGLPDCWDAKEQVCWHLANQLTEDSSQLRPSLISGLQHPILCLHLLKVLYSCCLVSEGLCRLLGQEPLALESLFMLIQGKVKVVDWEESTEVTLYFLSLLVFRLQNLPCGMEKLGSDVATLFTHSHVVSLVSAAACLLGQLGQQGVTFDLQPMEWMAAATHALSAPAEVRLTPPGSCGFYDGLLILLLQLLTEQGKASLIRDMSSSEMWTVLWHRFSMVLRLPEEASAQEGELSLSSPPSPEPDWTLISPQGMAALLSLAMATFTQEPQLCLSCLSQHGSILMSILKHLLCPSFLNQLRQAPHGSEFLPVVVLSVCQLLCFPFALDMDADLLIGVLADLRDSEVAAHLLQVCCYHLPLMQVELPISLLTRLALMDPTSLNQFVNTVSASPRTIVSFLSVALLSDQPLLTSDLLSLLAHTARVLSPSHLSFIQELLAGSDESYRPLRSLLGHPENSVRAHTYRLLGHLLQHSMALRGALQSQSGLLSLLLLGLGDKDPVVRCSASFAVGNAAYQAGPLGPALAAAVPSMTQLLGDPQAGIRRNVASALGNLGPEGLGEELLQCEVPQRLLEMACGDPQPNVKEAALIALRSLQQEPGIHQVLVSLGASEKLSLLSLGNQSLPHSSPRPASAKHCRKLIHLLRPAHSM

[6] = target: Dual specificity protein kinase CLK3 (Homo sapiens, UniProt P49761); test: Selectivity interaction (ActivX KiNativ screen (kinase selectivity in THP-1 cell lysates)) EUB0000639a CLK3; format: subcellular; details: lysate
[7] = target: Cyclin-dependent kinase 14 (Homo sapiens) (UniProt O94921); test: Selectivity interaction (ActivX KiNativ screen (kinase selectivity in THP-1 cell lysates)) EUB0000639a CDK14; format: subcellular; details: lysate, at 0.2 µM
[8] = target: Phosphatidylinositol 4-kinase beta (Homo sapiens, UniProt Q9UBF8); test: Selectivity interaction (ActivX KiNativ screen (kinase selectivity in THP-1 cell lysates)) EUB0000639a PI4KB; format: subcellular; details: lysate, at 0.01 µM
[9] = target: Mitogen-activated protein kinase 8 (Homo sapiens, UniProt P45983); test: Selectivity interaction (KinomeScan (DiscoverX)) EUB0001049a MAPK8; details: at 1 µM
Misshapen-like kinase 1 = Misshapen-like kinase 1 (Homo sapiens, UniProt Q8N4C8); test: Selectivity interaction (KinomeScan (DiscoverX)) EUB0000666a MINK1; details: at 10 µM
[10] = target: Dual specificity mitogen-activated protein kinase kinase 1 (Homo sapiens, UniProt Q02750); test: Selectivity interaction (KinomeScan (DiscoverX)) EUB0000092b MAP2K1; details: at 10 µM
[11] = target: Calcium/calmodulin-dependent protein kinase type II subunit delta (Homo sapiens) (UniProt Q13557); test: Selectivity interaction (KinomeScan (DiscoverX)) EUB0000092b CAMK2D; details: at 10 µM
[12] = tested on: eIF-2-alpha kinase GCN2 (Homo sapiens), Q9P2K8 [S808G]; test: Selectivity interaction (KinomeScan (DiscoverX)) EUB0000695a EIF2AK4; details: at 100 nM
Chain of eIF-2-alpha kinase GCN2 (Homo sapiens), Q9P2K8 [S808G] (Q9P2K8 whole entry S808G): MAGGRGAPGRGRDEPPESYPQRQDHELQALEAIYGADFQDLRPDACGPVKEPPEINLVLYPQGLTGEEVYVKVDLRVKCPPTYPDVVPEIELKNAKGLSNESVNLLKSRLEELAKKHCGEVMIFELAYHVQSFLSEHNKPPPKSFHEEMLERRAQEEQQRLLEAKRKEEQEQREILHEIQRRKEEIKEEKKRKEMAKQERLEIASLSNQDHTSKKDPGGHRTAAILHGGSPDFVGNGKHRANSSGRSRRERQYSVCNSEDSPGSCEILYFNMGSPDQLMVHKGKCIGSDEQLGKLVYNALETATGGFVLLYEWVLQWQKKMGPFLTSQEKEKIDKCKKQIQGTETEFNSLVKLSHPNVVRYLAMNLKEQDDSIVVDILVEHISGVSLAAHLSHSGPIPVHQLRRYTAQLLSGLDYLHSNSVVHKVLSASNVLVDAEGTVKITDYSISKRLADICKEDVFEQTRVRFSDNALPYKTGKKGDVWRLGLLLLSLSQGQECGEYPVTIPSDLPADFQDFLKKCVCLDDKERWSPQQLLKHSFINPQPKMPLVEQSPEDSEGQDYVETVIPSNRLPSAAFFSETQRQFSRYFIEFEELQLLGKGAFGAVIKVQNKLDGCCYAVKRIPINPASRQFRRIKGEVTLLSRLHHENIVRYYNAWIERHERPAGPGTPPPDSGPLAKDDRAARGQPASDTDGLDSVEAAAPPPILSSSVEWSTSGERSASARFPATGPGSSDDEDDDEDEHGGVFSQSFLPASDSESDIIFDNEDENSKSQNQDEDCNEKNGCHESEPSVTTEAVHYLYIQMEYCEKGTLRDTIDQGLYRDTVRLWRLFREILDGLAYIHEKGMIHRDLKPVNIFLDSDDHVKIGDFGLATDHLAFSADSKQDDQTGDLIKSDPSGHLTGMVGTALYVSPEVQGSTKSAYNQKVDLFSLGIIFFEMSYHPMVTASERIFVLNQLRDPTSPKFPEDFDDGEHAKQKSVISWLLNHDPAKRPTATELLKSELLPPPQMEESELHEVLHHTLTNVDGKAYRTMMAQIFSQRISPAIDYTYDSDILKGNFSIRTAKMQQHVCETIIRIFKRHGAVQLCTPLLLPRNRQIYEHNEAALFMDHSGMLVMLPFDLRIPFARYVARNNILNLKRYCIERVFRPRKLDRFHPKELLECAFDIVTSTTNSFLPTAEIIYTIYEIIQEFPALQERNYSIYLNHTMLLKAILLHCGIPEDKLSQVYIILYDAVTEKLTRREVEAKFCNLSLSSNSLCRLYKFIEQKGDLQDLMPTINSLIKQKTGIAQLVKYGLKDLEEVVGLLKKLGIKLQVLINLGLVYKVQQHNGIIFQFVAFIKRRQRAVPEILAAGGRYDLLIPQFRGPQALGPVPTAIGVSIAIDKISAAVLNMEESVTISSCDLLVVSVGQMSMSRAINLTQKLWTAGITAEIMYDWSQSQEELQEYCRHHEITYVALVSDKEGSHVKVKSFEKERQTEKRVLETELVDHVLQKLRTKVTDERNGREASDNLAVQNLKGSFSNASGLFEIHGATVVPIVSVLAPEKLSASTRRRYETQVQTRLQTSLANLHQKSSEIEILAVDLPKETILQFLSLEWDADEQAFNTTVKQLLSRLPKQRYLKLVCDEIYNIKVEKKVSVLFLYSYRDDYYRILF

Chain of Dual specificity protein kinase CLK3 (P49761 whole entry, looked up): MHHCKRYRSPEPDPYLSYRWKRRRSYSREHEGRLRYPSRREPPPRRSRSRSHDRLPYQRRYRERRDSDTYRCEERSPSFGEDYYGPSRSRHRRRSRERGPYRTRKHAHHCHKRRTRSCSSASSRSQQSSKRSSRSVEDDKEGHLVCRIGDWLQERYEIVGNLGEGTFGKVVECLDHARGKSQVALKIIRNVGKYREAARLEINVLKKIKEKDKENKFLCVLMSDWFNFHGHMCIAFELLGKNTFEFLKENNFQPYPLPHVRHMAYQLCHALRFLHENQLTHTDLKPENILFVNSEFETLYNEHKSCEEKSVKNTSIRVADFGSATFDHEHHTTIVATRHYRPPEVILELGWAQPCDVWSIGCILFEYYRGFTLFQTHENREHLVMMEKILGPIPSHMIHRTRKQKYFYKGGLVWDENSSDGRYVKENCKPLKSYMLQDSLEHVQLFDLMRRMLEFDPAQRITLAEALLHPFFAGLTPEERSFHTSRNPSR
Chain of Cyclin-dependent kinase 18 (Homo sapiens) (Q07002 whole entry): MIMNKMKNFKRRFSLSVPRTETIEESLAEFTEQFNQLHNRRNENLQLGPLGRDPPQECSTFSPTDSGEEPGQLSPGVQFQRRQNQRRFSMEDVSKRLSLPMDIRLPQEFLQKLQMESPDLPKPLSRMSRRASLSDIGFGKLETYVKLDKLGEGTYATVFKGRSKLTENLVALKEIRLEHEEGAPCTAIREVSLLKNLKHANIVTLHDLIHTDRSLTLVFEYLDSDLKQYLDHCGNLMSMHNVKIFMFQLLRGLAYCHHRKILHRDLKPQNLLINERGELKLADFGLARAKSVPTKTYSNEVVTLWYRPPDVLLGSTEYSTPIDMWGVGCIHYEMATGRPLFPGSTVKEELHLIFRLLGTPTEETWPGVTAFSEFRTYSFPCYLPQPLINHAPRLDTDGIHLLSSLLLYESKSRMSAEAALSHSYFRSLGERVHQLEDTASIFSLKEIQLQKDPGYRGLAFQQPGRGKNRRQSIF
Chain of Dual specificity mitogen-activated protein kinase kinase 1 (Q02750 whole entry): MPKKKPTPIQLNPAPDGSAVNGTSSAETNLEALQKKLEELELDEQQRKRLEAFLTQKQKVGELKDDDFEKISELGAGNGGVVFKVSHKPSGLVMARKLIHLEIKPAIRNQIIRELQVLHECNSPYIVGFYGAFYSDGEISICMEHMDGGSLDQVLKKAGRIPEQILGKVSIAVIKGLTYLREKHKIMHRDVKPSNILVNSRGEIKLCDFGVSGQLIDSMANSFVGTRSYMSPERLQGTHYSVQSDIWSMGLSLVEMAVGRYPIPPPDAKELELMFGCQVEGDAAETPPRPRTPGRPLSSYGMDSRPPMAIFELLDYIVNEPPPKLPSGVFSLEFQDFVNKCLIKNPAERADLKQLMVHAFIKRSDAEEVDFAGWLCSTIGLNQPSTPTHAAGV
Chain of Ephrin type-A receptor 7 (Homo sapiens) (Q15375 28-998 limits assumed): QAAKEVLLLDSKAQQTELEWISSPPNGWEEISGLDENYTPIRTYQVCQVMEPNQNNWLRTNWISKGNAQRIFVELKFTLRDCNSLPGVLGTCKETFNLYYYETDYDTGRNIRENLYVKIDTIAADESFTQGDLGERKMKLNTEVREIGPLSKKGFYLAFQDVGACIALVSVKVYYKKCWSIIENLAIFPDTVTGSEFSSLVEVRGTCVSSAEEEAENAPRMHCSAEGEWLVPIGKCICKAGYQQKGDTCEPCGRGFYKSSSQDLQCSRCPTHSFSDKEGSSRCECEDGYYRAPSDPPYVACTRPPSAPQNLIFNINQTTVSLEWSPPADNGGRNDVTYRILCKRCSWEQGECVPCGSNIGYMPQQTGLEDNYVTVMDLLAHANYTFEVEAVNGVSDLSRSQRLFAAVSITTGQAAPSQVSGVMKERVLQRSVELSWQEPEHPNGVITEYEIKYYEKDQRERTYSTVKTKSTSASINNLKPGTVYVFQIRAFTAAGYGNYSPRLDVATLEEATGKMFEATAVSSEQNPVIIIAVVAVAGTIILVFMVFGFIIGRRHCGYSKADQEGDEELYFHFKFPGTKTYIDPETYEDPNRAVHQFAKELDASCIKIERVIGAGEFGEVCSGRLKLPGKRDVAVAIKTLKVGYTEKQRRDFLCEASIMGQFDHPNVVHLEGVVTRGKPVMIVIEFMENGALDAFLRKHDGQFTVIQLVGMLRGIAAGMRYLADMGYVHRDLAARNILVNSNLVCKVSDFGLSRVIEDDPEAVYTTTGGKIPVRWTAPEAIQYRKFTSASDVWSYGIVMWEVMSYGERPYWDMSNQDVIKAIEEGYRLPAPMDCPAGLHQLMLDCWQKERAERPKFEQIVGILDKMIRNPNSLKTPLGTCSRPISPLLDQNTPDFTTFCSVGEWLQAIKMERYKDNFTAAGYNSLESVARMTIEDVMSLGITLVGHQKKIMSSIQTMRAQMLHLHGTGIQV
Chain of Casein kinase II subunit alpha' (Homo sapiens) (P19784 whole entry, looked up): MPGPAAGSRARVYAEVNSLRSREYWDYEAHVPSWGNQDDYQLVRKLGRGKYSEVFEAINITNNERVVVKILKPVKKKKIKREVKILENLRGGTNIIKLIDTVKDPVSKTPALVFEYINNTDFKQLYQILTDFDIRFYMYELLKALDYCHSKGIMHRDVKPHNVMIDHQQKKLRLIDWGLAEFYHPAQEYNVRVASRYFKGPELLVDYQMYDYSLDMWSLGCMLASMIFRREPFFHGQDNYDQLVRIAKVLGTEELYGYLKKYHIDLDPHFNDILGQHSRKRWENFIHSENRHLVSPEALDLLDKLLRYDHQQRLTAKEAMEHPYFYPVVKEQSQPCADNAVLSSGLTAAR
Chain of Calcium/calmodulin-dependent protein kinase type II subunit delta (Homo sapiens) (Q13557 whole entry): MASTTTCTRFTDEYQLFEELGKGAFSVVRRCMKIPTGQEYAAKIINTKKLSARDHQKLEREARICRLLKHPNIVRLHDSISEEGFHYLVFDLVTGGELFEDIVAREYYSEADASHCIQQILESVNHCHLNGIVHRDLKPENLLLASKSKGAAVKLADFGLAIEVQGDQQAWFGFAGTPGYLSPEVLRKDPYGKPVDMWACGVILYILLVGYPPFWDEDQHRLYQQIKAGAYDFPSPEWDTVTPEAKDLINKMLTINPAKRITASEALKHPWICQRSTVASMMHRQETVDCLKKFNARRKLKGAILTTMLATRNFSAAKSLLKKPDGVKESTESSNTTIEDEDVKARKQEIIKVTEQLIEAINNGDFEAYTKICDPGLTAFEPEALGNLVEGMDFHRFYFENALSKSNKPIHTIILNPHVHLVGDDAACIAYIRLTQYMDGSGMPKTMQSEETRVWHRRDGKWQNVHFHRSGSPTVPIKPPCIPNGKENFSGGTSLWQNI

% of inhibition [1]: 2%
Structure (SMILES): CN1Cc2nccc(-c3cn(C)nc3-c3ccc(F)cc3)c2C1=O

Structure (SMILES): CN(C)CCOc1ccc(-c2nc(-c3ccncc3)c(-c3ccc4c(c3)CC/C4=N\O)[nH]2)cc1
% of control [2]: 100%

Structure (SMILES): Nc1cnc(N2CCc3cc(S(=O)(=O)Nc4c(F)cc(Cl)cc4F)cc(N4CCCC4=O)c32)nc1 [TP-020n]
% of control [3]: 100%

Structure (SMILES): O[C@H]1CC[C@H](Nc2ncc3nc(Nc4c(F)cc(F)cc4F)n([C@H]4CCOC4)c3n2)CC1
% of control [4]: 100%

Structure (SMILES): N#Cc1cccc(-c2c[nH]c3ncnc(N4CCOCC4)c23)c1
% of control [5]: 100%

% of inhibition ([6]; at 0.01 µM): 8.2% | % of inhibition ([6]; at 0.04 µM): 15.5% | % of inhibition ([6]; at 0.2 µM): 0.7% | % of inhibition ([6]; at 1 µM): 5.8% | % of inhibition ([6]; at 5 µM): 12.1% | % of inhibition [7]: -7.5% | % of inhibition [8]: 1.7%
Structure (SMILES): CC[C@@H]1[C@H](F)C(=O)N[C@@H]1COc1nccc2cc(C(N)=O)c(OC)cc12 [ZIMLOVISERTIB]

Structure (SMILES): COc1cc(Nc2nc(C)cc(-c3cnn4nc(OC)ccc34)n2)cc(C(F)(F)F)c1
% of control [9]: 88%

Structure (SMILES): O=C(NOC[C@H](O)CO)c1ccc(F)c(F)c1Nc1ccc(I)cc1F
% of control (Misshapen-like kinase 1): 94%

Structure (SMILES): CCC(=O)N1CCN(c2ccc(-n3c(=O)ccc4cnc5ccc(-c6cnc7ccccc7c6)cc5c43)cc2C(F)(F)F)CC1
% of control [10]: 100% | % of control [11]: 72%

Structure (SMILES): Cc1cc(F)c(C(=O)Nc2cccc(-c3nncn3C(C)C)n2)cc1-n1cnc(C2CC2)c1
% of control [12]: 77%
